Laboratory results published in the supplement of paper PMC10307832.

Key:
Experiment in all cases: relative viability (nuclei count vs DMSO), 5 days (fraction); higher = more cells survive
[1] = test system: CAL-12T
Summary of the method: (§1)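 Values are medians from duplicate plates. Each reflects relative viability, defined as the nuclei count of treated wells over that of vehicle wells. Lung cancer cell lines in 1536-well plates were pin-tool dosed one day after seeding with one drug alone or with a fixed anchor-drug dose plus five library-drug doses (not always all listed) in √10 steps, then fixed, stained and imaged at 4× after 5 days.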

[2] = test system: ChaGo-K-1
Summary of the method: as §1

[3] = test system: HCC-366
Summary of the method: as §1

[4] = test system: HCC-78
Summary of the method: as §1

[5] = test system: LC-2-ad
Summary of the method: as §1

[6] = test system: LOU-NH91
Summary of the method: as §1

[7] = test system: LU99A
Summary of the method: as §1

[8] = test system: NCI-H1395
Summary of the method: as §1

[9] = test system: NCI-H1651
Summary of the method: as §1

[10] = test system: NCI-H1734
Summary of the method: as §1

[11] = test system: NCI-H1755
Summary of the method: as §1

[12] = test system: NCI-H1793
Summary of the method: as §1

[13] = test system: NCI-H1944
Summary of the method: as §1

[14] = test system: NCI-H2087
Summary of the method: as §1

[15] = test system: NCI-H2170
Summary of the method: as §1

[16] = test system: NCI-H2228
Summary of the method: as §1

[17] = test system: NCI-H2405
Summary of the method: as §1

[18] = test system: NCI-H3122
Summary of the method: as §1

[19] = test system: NCI-H460
Summary of the method: as §1

[20] = test system: PC-3 [JPC-3]
Summary of the method: as §1

[21] = test system: RERF-LC-KJ
Summary of the method: as §1

[22] = test system: UMC-11
Summary of the method: as §1

In the case of NC(=O)Nc1cc(-c2cccc(F)c2)sc1C(=O)N[C@H]1CCCNC1 [AZD7762] + CC1(C)CCC(c2ccc(Cl)cc2)=C(CN2CCN(c3ccc(C(=O)NS(=O)(=O)c4ccc(N[C@H](CCN5CCOCC5)CSc5ccccc5)c(S(=O)(=O)C(F)(F)F)c4)cc3)CC2)C1 [Navitoclax] (partner 0.5 µM), the relative viability ([1]; first compound 0.01 µM) is reported as 1.23, the relative viability ([1]; first compound 0.03162 µM) is reported as 1.18 and the relative viability ([1]; first compound 0.1 µM) is reported as 1.24. The relative viability ([1]; first compound 0.3162 µM) was 1.09, the relative viability ([1]; first compound 1 µM) was 0.169 and the relative viability ([2]; first compound 0.01 µM) was 0.934. It also gave a relative viability ([2]; first compound 0.03162 µM) of 1, a relative viability ([2]; first compound 0.1 µM) of 0.913 and a relative viability ([2]; first compound 0.3162 µM) of 0.813. It also gave a relative viability ([2]; first compound 1 µM) of 0.664, a relative viability ([3]; first compound 0.01 µM) of 1.1 and a relative viability ([3]; first compound 0.03162 µM) of 1.09. For the same molecule, the relative viability ([3]; first compound 0.1 µM) was 1.06, the relative viability ([3]; first compound 0.3162 µM) was 0.687 and the relative viability ([3]; first compound 1 µM) was 0.165. The relative viability ([4]; first compound 0.01 µM) was 0.822, the relative viability ([4]; first compound 0.03162 µM) was 0.807 and the relative viability ([4]; first compound 0.1 µM) was 0.792. The relative viability ([4]; first compound 0.3162 µM) was 0.714, the relative viability ([4]; first compound 1 µM) was 0.401 and the relative viability ([5]; first compound 0.01 µM) was 0.491. It also gave a relative viability ([5]; first compound 0.03162 µM) of 0.476, a relative viability ([5]; first compound 0.1 µM) of 0.415 and a relative viability ([5]; first compound 0.3162 µM) of 0.414. For the same molecule, the relative viability ([5]; first compound 1 µM) was 0.309, the relative viability ([6]; first compound 0.01 µM) was 0.753 and the relative viability ([6]; first compound 0.03162 µM) was 0.673. The relative viability ([6]; first compound 0.1 µM) was 0.619, the relative viability ([6]; first compound 0.3162 µM) was 0.562 and the relative viability ([6]; first compound 1 µM) was 0.4. It also gave a relative viability ([7]; first compound 0.01 µM) of 0.81, a relative viability ([7]; first compound 0.03162 µM) of 0.869 and a relative viability ([7]; first compound 0.1 µM) of 0.718. The relative viability ([7]; first compound 0.3162 µM) was 0.665, the relative viability ([7]; first compound 1 µM) was 0.514 and the relative viability ([8]; first compound 0.01 µM) was 1.27. The relative viability ([8]; first compound 0.03162 µM) was 1.66, the relative viability ([8]; first compound 0.1 µM) was 1.41 and the relative viability ([8]; first compound 0.3162 µM) was 0.634. For the same molecule, the relative viability ([8]; first compound 1 µM) was 0.408, the relative viability ([9]; first compound 0.01 µM) was 1.16 and the relative viability ([9]; first compound 0.03162 µM) was 0.964. The relative viability ([9]; first compound 0.1 µM) was 0.922, the relative viability ([9]; first compound 0.3162 µM) was 0.855 and the relative viability ([9]; first compound 1 µM) was 0.283. The relative viability ([10]; first compound 0.01 µM) was 0.995, the relative viability ([10]; first compound 0.03162 µM) was 0.892 and the relative viability ([10]; first compound 0.1 µM) was 0.978. The relative viability ([10]; first compound 0.3162 µM) was 0.891, the relative viability ([10]; first compound 1 µM) was 0.606 and the relative viability ([11]; first compound 0.01 µM) was 1.03. The relative viability ([11]; first compound 0.03162 µM) was 1.01, the relative viability ([11]; first compound 0.1 µM) was 1.08 and the relative viability ([11]; first compound 0.3162 µM) was 1.08. It also gave a relative viability ([11]; first compound 1 µM) of 0.622, a relative viability ([12]; first compound 0.01 µM) of 0.437 and a relative viability ([12]; first compound 0.03162 µM) of 0.645. For the same molecule, the relative viability ([12]; first compound 0.1 µM) was 0.476, the relative viability ([12]; first compound 0.3162 µM) was 0.368 and the relative viability ([12]; first compound 1 µM) was 0.211. For the same molecule, the relative viability ([13]; first compound 0.01 µM) was 1.06, the relative viability ([13]; first compound 0.03162 µM) was 1.14 and the relative viability ([13]; first compound 0.1 µM) was 1.1. It also gave a relative viability ([13]; first compound 0.3162 µM) of 1.12, a relative viability ([13]; first compound 1 µM) of 0.816 and a relative viability ([14]; first compound 0.01 µM) of 1.13. The relative viability ([14]; first compound 0.03162 µM) was 1, the relative viability ([14]; first compound 0.1 µM) was 1.27 and the relative viability ([14]; first compound 0.3162 µM) was 1.17. It also gave a relative viability ([14]; first compound 1 µM) of 1.28, a relative viability ([15]; first compound 0.01 µM) of 0.62 and a relative viability ([15]; first compound 0.03162 µM) of 0.702. It also gave a relative viability ([15]; first compound 0.1 µM) of 0.577, a relative viability ([15]; first compound 0.3162 µM) of 0.653 and a relative viability ([15]; first compound 1 µM) of 0.584. It also gave a relative viability ([16]; first compound 0.01 µM) of 1, a relative viability ([16]; first compound 0.03162 µM) of 0.552 and a relative viability ([16]; first compound 0.1 µM) of 1. For the same molecule, the relative viability ([16]; first compound 0.3162 µM) was 0.666, the relative viability ([16]; first compound 1 µM) was 0.354 and the relative viability ([17]; first compound 0.01 µM) was 0.812. For the same molecule, the relative viability ([17]; first compound 0.03162 µM) was 0.925, the relative viability ([17]; first compound 0.1 µM) was 0.873 and the relative viability ([17]; first compound 0.3162 µM) was 0.675. The relative viability ([17]; first compound 1 µM) was 0.244, the relative viability ([18]; first compound 0.01 µM) was 0.97 and the relative viability ([18]; first compound 0.03162 µM) was 1.03. The relative viability ([18]; first compound 0.1 µM) was 1.01, the relative viability ([18]; first compound 0.3162 µM) was 0.995 and the relative viability ([18]; first compound 1 µM) was 1.05. It also gave a relative viability ([19]; first compound 0.01 µM) of 1.25, a relative viability ([19]; first compound 0.03162 µM) of 1.15 and a relative viability ([19]; first compound 0.1 µM) of 1.11. For the same molecule, the relative viability ([19]; first compound 0.3162 µM) was 0.861, the relative viability ([19]; first compound 1 µM) was 0.0845 and the relative viability ([20]; first compound 0.01 µM) was 0.776. The relative viability ([20]; first compound 0.03162 µM) was 0.824, the relative viability ([20]; first compound 0.1 µM) was 0.802 and the relative viability ([20]; first compound 0.3162 µM) was 0.847. The relative viability ([20]; first compound 1 µM) was 0.823, the relative viability ([21]; first compound 0.01 µM) was 1.15 and the relative viability ([21]; first compound 0.03162 µM) was 0.913. For the same molecule, the relative viability ([21]; first compound 0.1 µM) was 1.12, the relative viability ([21]; first compound 0.3162 µM) was 1.21 and the relative viability ([21]; first compound 1 µM) was 0.878. For the same molecule, the relative viability ([22]; first compound 0.01 µM) was 0.312, the relative viability ([22]; first compound 0.03162 µM) was 0.32 and the relative viability ([22]; first compound 0.1 µM) was 0.272. The relative viability ([22]; first compound 0.3162 µM) was 0.307 and the relative viability ([22]; first compound 1 µM) was 0.21.
